This note sets out measurements from PubChem BioAssay AID248 (DTP/NCI, 2004).

The subject of the assay is L1210 leukemia ip in BDF1 mice, survival T/C. In words: NCI In Vivo Anticancer Drug Screen. Data for tumor model L1210 Leukemia (intraperitoneal) in B6D2F1 (BDF1) mice. The following applies: endpoint: mean survival time, higher = longer survival. The procedure, abridged: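 Read-out is survival time, reported as the treated-group measurement over the vehicle-control measurement.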

[1] abbreviates: dose: 100.0 mg/kg/injection, schedule: Q01DX009 (ip), vehicle: Klucel (hydroxypropylcellulose) (HPC).
Setting [2] is: dose: 200.0 mg/kg/injection, schedule: Q01DX009 (ip), vehicle: Klucel (hydroxypropylcellulose) (HPC).
[3] abbreviates: dose: 400.0 mg/kg/injection, schedule: Q01DX009 (ip), vehicle: Klucel (hydroxypropylcellulose) (HPC).
Setting [4] is: dose: 75.0 mg/kg/injection, schedule: Q01DX001 (ip), vehicle: other.
[5] abbreviates: dose: 150.0 mg/kg/injection, schedule: Q01DX001 (ip), vehicle: other.
[6] abbreviates: dose: 25.0 mg/kg/injection, schedule: Q01DX009 (ip), vehicle: Klucel (hydroxypropylcellulose) (HPC).
The mark [7] stands for this setting: dose: 50.0 mg/kg/injection, schedule: Q01DX009 (ip), vehicle: Klucel (hydroxypropylcellulose) (HPC).
The mark [8] stands for this setting: dose: 100.0 mg/kg/injection, schedule: Q04DX003 (ip), vehicle: Klucel (hydroxypropylcellulose) (HPC).

Values joined by “and” are separate entries in the source; they are usually repeats but may differ in a detail not shown here. Identical values can stand only once. Toxic doses and inconclusive results are not listed.

Regarding `CCCCCCCCCCCCn1c(C)nc2ccccc21`, the T/C runs as follows: (dose: 2.4 mg/kg/injection, schedule: Q03HX024 (ip), vehicle: saline) 94 % of control; (dose: 3.6 mg/kg/injection, schedule: Q03HX024 (ip), vehicle: saline) 91 % of control; (dose: 5.0 mg/kg/injection, schedule: Q01DX001 (ip), vehicle: saline) 104 % of control; (dose: 5.0 mg/kg/injection, schedule: Q04DX003 (ip), vehicle: carboxymethylcellulose (CMC)) 105 % of control; (dose: 5.4 mg/kg/injection, schedule: Q03HX024 (ip), vehicle: saline) 97 % of control; (dose: 8.0 mg/kg/injection, schedule: Q03HX024 (ip), vehicle: saline) 96 % of control. Also, the T/C runs as follows: (dose: 10.0 mg/kg/injection, schedule: Q01DX001 (ip), vehicle: saline) 101 % of control; (dose: 10.0 mg/kg/injection, schedule: Q04DX003 (ip), vehicle: carboxymethylcellulose (CMC)) 106 % of control; (dose: 12.0 mg/kg/injection, schedule: Q01DX009 (ip), vehicle: saline) 116 % of control; (dose: 12.0 mg/kg/injection, schedule: Q03HX024 (ip), vehicle: saline) 104 % of control; (dose: 18.0 mg/kg/injection, schedule: Q01DX009 (ip), vehicle: saline) 118 % of control; (dose: 20.0 mg/kg/injection, schedule: Q01DX001 (ip), vehicle: saline) 104 % of control. Also, the T/C (dose: 20.0 mg/kg/injection, schedule: Q04DX003 (ip), vehicle: carboxymethylcellulose (CMC)) is 108 % of control; the T/C (dose: 24.0 mg/kg/injection, schedule: Q01DX001 (ip), vehicle: saline) is 106 % of control; the T/C (dose: 24.0 mg/kg/injection, schedule: Q04DX003 (ip), vehicle: saline) is 113 % of control; the T/C (dose: 27.0 mg/kg/injection, schedule: Q01DX009 (ip), vehicle: saline) was 113 % of control; the T/C (dose: 36.0 mg/kg/injection, schedule: Q01DX001 (ip), vehicle: saline) was 105 % of control; the T/C (dose: 36.0 mg/kg/injection, schedule: Q04DX003 (ip), vehicle: saline) was 104 % of control. Moreover, under “dose: 40.0 mg/kg/injection, schedule: Q01DX001 (ip), vehicle: saline”, the T/C is 112 % of control.

As for `CC1CC(NC(=S)NC(=O)c2ccc(Cl)cc2Cl)CC(C)(C)C1` (centres undefined), the T/C under setting [1] was 91 % of control, the T/C under setting [2] was 96 % of control and the T/C under setting [3] is 91 % of control.

Turning to `Cc1cccc(C(=O)OCCBr)c1`, the T/C is, setting by setting: (dose: 100.0 mg/kg/injection, schedule: Q04DX003 (ip), vehicle: saline sonified) 98 % of control; (dose: 200.0 mg/kg/injection, schedule: Q04DX003 (ip), vehicle: saline sonified) 104 % of control; (dose: 400.0 mg/kg/injection, schedule: Q04DX003 (ip), vehicle: saline sonified) 106 % of control.

Turning to `CC(C)(C)C(=O)CC(=O)C(C)(C)C.CC(C)(C)C(=O)CC(=O)C(C)(C)C.[Cu]`, the T/C runs as follows: under setting [4], 103 % of control; under setting [5], 94 % of control.

As for `CC1(C)N=C(N)N=C(N)N1c1ccc(OCC(=O)Nc2cccc(S(=O)(=O)F)c2)cc1`, the T/C is 105 % of control (dose: 100.0 mg/kg/injection, schedule: Q01DX001 (ip), vehicle: saline); 91 % of control (dose: 200.0 mg/kg/injection, schedule: Q01DX001 (ip), vehicle: saline); 107 % of control (dose: 400.0 mg/kg/injection, schedule: Q01DX001 (ip), vehicle: saline).

Turning to `O=[N+]([O-])c1ccc2nccc(Cl)c2c1`, the T/C by setting is: under setting [6], 97 % of control; under setting [7], 92 % of control; under setting [8], 95 % of control.

With `O=[N+]([O-])c1ccc(N/N=C/c2ccccn2)cc1`, the T/C was 87 % of control under setting [1], 95 % of control under setting [2] and 97 % of control under setting [3].

As to `Cc1c(C=NCCNCCN=Cc2[nH]c(=S)[nH]c(=O)c2C)[nH]c(=S)[nH]c1=O`, the T/C reads like this: (dose: 44.0 mg/kg/injection, schedule: Q04DX003 (ip), vehicle: saline with Tween-80) 97 % of control and 98 % of control; (dose: 66.0 mg/kg/injection, schedule: Q04DX003 (ip), vehicle: saline with Tween-80) 106 % of control and 108 % of control; (dose: 100.0 mg/kg/injection, schedule: Q04DX003 (ip), vehicle: saline with Tween-80) 103 % of control and 110 % of control; (dose: 150.0 mg/kg/injection, schedule: Q04DX003 (ip), vehicle: saline with Tween-80) 98 % of control and 104 % of control; (dose: 200.0 mg/kg/injection, schedule: Q04DX003 (ip), vehicle: saline with Tween-80) 110 % of control; (dose: 400.0 mg/kg/injection, schedule: Q04DX003 (ip), vehicle: saline with Tween-80) 104 % of control.

Turning to `CCN(CC)CCC(=O)OC(c1ccccc1)C1(O)CCSC1` (centres undefined), the T/C under setting [8] is 106 % of control and the T/C (dose: 200.0 mg/kg/injection, schedule: Q04DX003 (ip), vehicle: Klucel (hydroxypropylcellulose) (HPC)) was 96 % of control.

`NNC(=O)c1ccccc1[N+](=O)[O-]`: the T/C was 95 % of control under setting [6]; 94 % of control under setting [7]; 100 % of control (dose: 50.0 mg/kg/injection, schedule: Q04DX003 (ip), vehicle: Klucel (hydroxypropylcellulose) (HPC)); 101 % of control under setting [1]; 100 % of control under setting [8].

For `Nc1ncnc(NC2CCCCC2)n1`, the T/C (dose: 6.25 mg/kg/injection, schedule: Q01DX009 (ip), vehicle: Klucel (hydroxypropylcellulose) (HPC)) is 100 % of control; the T/C (dose: 12.5 mg/kg/injection, schedule: Q01DX009 (ip), vehicle: Klucel (hydroxypropylcellulose) (HPC)) is 94 % of control; the T/C under setting [6] is 97 % of control and 98 % of control; the T/C under setting [7] was 111 % of control; the T/C under setting [8] was 91 % of control; the T/C (dose: 400.0 mg/kg/injection, schedule: Q04DX003 (ip), vehicle: Klucel (hydroxypropylcellulose) (HPC)) is 98 % of control.

As to `CCCCCCCNC(CC(C)C)C(=O)OCC` (centres undefined), the T/C was 91 % of control (dose: 25.0 mg/kg/injection, schedule: Q04DX002 (ip), vehicle: Klucel (hydroxypropylcellulose) (HPC)); 97 % of control (dose: 50.0 mg/kg/injection, schedule: Q04DX002 (ip), vehicle: Klucel (hydroxypropylcellulose) (HPC)); 94 % of control (dose: 100.0 mg/kg/injection, schedule: Q04DX002 (ip), vehicle: Klucel (hydroxypropylcellulose) (HPC)).

Take `CCC(=O)NC1=C(N2CC2C)C(=O)C(NC(=O)CC)=C(N2CC2C)C1=O` (centres undefined): the T/C reads like this: (dose: 3.12 mg/kg/injection, schedule: Q01DX009 (ip), vehicle: saline) 111 % of control; (dose: 6.25 mg/kg/injection, schedule: Q01DX009 (ip), vehicle: saline) 124 % of control; (dose: 12.5 mg/kg/injection, schedule: Q01DX009 (ip), vehicle: saline) 153 % of control; (dose: 25.0 mg/kg/injection, schedule: Q01DX009 (ip), vehicle: saline) 177 % of control; (dose: 35.0 mg/kg/injection, schedule: Q01DX009 (ip), vehicle: Klucel (hydroxypropylcellulose) (HPC)) 103 % of control.

For the compound `CC(C)CC(CC(C)C)NCCOC(=O)Cc1ccccc1`, the T/C under setting [4] was 93 % of control and the T/C under setting [5] is 89 % of control.

For the compound `Cc1cccc(Nc2nc(N)nc(N)c2N)c1`, the T/C was 101 % of control (dose: 25.0 mg/kg/injection, schedule: Q01DX Z (ip), vehicle: saline) and 91 % of control (dose: 50.0 mg/kg/injection, schedule: Q01DX Z (ip), vehicle: saline).

For the compound `O=C(Nc1ccc(C2=NCCO2)cc1)c1ccc(C(=O)Nc2ccc(C3=NCCO3)cc2)cc1`, the T/C by setting is: (dose: 15.0 mg/kg/injection, schedule: Q01DX Z (ip), vehicle: carboxymethylcellulose (CMC)) 105 % of control; (dose: 30.0 mg/kg/injection, schedule: Q01DX Z (ip), vehicle: carboxymethylcellulose (CMC)) 96 % of control; (dose: 60.0 mg/kg/injection, schedule: Q01DX Z (ip), vehicle: carboxymethylcellulose (CMC)) 91 % of control; (dose: 120.0 mg/kg/injection, schedule: Q01DX Z (ip), vehicle: carboxymethylcellulose (CMC)) 96 % of control.

`C(=N\Nc1ccccc1)/c1cc2c3c(c1)CCCN3CCC2`: the T/C (dose: 100.0 mg/kg/injection, schedule: Q01DX009 (ip), vehicle: gum acacia) is 94 % of control; the T/C (dose: 200.0 mg/kg/injection, schedule: Q01DX009 (ip), vehicle: gum acacia) is 91 % of control; the T/C (dose: 400.0 mg/kg/injection, schedule: Q01DX009 (ip), vehicle: gum acacia) is 94 % of control.
